Assay results taken from article PMC11212140, “Molecular Bidents with Two Electrophilic Warheads as a New Pharmacological Modality” (ACS Central Science, 2024).

Legend:
Experiment in all cases: KiNativ profiling in H3255 cells
Assay type in all cases: cell-based, human
[1] = system: T1, Erk5; details: 2.5 µM; Lys2; DLKPSNLLVNENCELK
T1 construct: purchased ActivX Biosciences (KiNativ)
Procedure: (§1) treatment. Cell viability was determined by using CellTiter-Glo (Promega #G7571) according to the manufacturer’s instructions, measuring luminescence using an Envision plate-reader (PerkinElmer Inc.). Dose-response curves were generated using non-linear regression curve fit in GraphPad Prism 9.2.0(GraphPad Software).
(§2) Cellular target engagement assays
(§3) After 6 hours treatment, cells were pelleted, washed with PBS once and lysed with IP lysis buffer (25mMTris-HCl pH 7.4, 150mM NaCl, 1 mM EDTA, 1% NP-40 and 5% glycerol) (Thermo Fisher Scientific, Cat#87788) containing protease/phosphatase inhibitor cocktail (Roche). The protein concentrations were measured by BCA analysis (Pierce). Cell lysates were incubated with 1 μM of biotin conjugated probe (bio-Osimertinib or bio-ZNL-0013) at 4 ℃ overnight, and incubated for 3 more hours at room temperature. Lysates with probe were then incubated with streptavidin beads (Thermo Fisher, #20349) for 2 hours at 4 ℃. The protein-probe complexes on the beads were then subjected to immunoblotting.
(§4) H3255 cells were plated with 6.5x10^6 per condition in fresh media in 15 cm plates and treated the 80% confluency for 2 hours with DMSO or 2.5 μM of ZNL-0056. To harvest cells, plates were washed 3 times with cold PBS, then collected by scraping into 4 mL of cold PBS containing protease and phosphatase inhibitors. Cells were pelleted by centrifugation at 1350 g at 4 ℃ for 5 minutes and immediately frozen in liquid nitrogen. The frozen samples were sent to ActivX Biosciences (La Jolla, CA) for the remainder of the KiNativ profiling experiment4.
(§5) Protein expression and purification
(§6) Human EGFR kinase domain (residues 696-1022) with T790M and V948R mutations was cloned with an N-terminal, protease cleavable His -GST tag. Recombinant protein was expressed in SF9 insect cells using baculovirus generated from the pFastBac system (Thermo Fisher) .
(§7) Briefly, cells at a density of ~2x10^6 cells/mL were infected with 1% (v/v) virus stock and grown for ~72 hours before harvesting and freezing the cell pellet . Infected cells were lysed in buffer A (50 mM Tris pH 8.0, 500 mM NaCl, 5% glycerol, 0.5 mM Tris(2-carboxyethyl)phosphine [TCEP]), ultracentrifuged at >200,000 rcf for 1 h, and the supernatant flo wed through Ni-NTA resin by gravity. The resin was washed with buffer A supplemented with 40 mM imidazole by […]

[2] = system: Wnk1, Wnk2; details: 2.5 µM; ATP Loop; GSFKTVYK
Procedure: as §1, §2, §3, §4, §5, §6, §7

[3] = system: T2, EGFR-L858R; details: 2.5 µM; Activation Loop; AKLLGAEEK
T2 construct: purchased ActivX Biosciences (KiNativ)
Procedure: as §1, §2, §3, §4, §5, §6, §7

[4] = system: T3, CDKL3; details: 2.5 µM; Lys2; DIKPENILVSQSGITK
T3 construct: purchased ActivX Biosciences (KiNativ)
Procedure: as §1, §2, §3, §4, §5, §6, §7

[5] = system: T4, SLK; details: 2.5 µM
T4 construct: purchased ActivX Biosciences (KiNativ)
Procedure: as §1, §2, §3, §4, §5, §6, §7

[6] = system: ROCK1, ROCK2; details: 2.5 µM; Lys2; DVKPDNMLLDK
Procedure: as §1, §2, §3, §4, §5, §6, §7

[7] = system: T5, PIP4K2B; details: 2.5 µM; ATP; AKDLPTFKDNDFLNEGQK
T5 construct: purchased ActivX Biosciences (KiNativ)
Procedure: as §1, §2, §3, §4, §5, §6, §7

[8] = system: T6, PKR; details: 2.5 µM
T6 construct: purchased ActivX Biosciences (KiNativ)
Procedure: as §1, §2, §3, §4, §5, §6, §7

[9] = system: T7, MRCKb; details: 2.5 µM; Lys2; DIKPDNVLLDVNGHIR
T7 construct: purchased ActivX Biosciences (KiNativ)
Procedure: as §1, §2, §3, §4, §5, §6, §7

[10] = system: T8, PKN2; details: 2.5 µM; Lys2; DLKLDNLLLDTEGFVK
T8 construct: purchased ActivX Biosciences (KiNativ)
Procedure: as §1, §2, §3, §4, §5, §6, §7

[11] = system: T9, PDK1; details: 2.5 µM; Lys1; EYAIKILEK
T9 construct: purchased ActivX Biosciences (KiNativ)
Procedure: as §1, §2, §3, §4, §5, §6, §7

[12] = system: T10, IRE1; details: 2.5 µM; Lys2; DLKPHNILISMPNAHGK
T10 construct: purchased ActivX Biosciences (KiNativ)
Procedure: as §1, §2, §3, §4, §5, §6, §7

[13] = system: T11, SYK; details: 2.5 µM
T11 construct: purchased ActivX Biosciences (KiNativ)
Procedure: as §1, §2, §3, §4, §5, §6, §7

[14] = system: T12, MAP4K3; details: 2.5 µM
T12 construct: purchased ActivX Biosciences (KiNativ)
Procedure: as §1, §2, §3, §4, §5, §6, §7

[15] = system: T13, ITPK1; details: 2.5 µM; ATP; NFSAGTSDRESIFFNSHNVSKPESSSVLTELDKIEGVFERPSDEVIR
T13 construct: purchased ActivX Biosciences (KiNativ)
Procedure: as §1, §2, §3, §4, §5, §6, §7

[16] = system: T14, MLK1; details: 2.5 µM; Lys2; DLKSSNILILQK
T14 construct: purchased ActivX Biosciences (KiNativ)
Procedure: as §1, §2, §3, §4, §5, §6, §7

[17] = system: T15, CDK7; details: 2.5 µM
T15 construct: purchased ActivX Biosciences (KiNativ)
Procedure: as §1, §2, §3, §4, §5, §6, §7

[18] = system: T16, EphB4; details: 2.5 µM; Activation Loop; FLEENSSDPTYTSSLGGKIPIR
T16 construct: purchased ActivX Biosciences (KiNativ)
Procedure: as §1, §2, §3, §4, §5, §6, §7

[19] = system: MARK1, MARK2; details: 2.5 µM; Lys1; EVAVKIIDK
Procedure: as §1, §2, §3, §4, §5, §6, §7

[20] = system: T17, PIP4K2C; details: 2.5 µM, ATP
T17 construct: purchased ActivX Biosciences (KiNativ)
Procedure: as §1, §2, §3, §4, §5, §6, §7

[21] = system: T18, PIP5K3; details: 2.5 µM; ATP; GGKSGAAFYATEDDRFILK
T18 construct: purchased ActivX Biosciences (KiNativ)
Procedure: as §1, §2, §3, §4, §5, §6, §7

[22] = system: T19, MPSK1; details: 2.5 µM; Lys2; DLKPTNILLGDEGQPVLMDLGSMNQACIHVEGSR
T19 construct: purchased ActivX Biosciences (KiNativ)
Procedure: as §1, §2, §3, §4, §5, §6, §7

[23] = system: Wnk1, Wnk2, Wnk4; details: 2.5 µM; Activation Loop; IGDLGLATLKR
Procedure: as §1, §2, §3, §4, §5, §6, §7

[24] = system: T20, IKKa; details: 2.5 µM; Lys2; DLKPENIVLQDVGGK
T20 construct: purchased ActivX Biosciences (KiNativ)
Procedure: as §1, §2, §3, §4, §5, §6, §7

[25] = Activation Loop, IGDFGLVTSLKNDGKR

| Structure (SMILES) | Inhibition [1] | Inhibition [2] | Inhibition [3] | Inhibition [4] | Inhibition ([5]; Lys1, AQNKETSVLAAAKVIDTK) | Inhibition ([5]; Lys2, DLKAGNILFTLDGDIK) | Inhibition [6] | Inhibition [7] | Inhibition [8, 25] | Inhibition ([8]; Lys2, DLKPSNIFLVDTK) | Inhibition [9] | Inhibition [10] | Inhibition [11] | Inhibition [12] | Inhibition ([13]; Activation Loop, ISDFGLSKALR) | Inhibition ([13]; Lys1, TVAVKILK) | Inhibition ([14]; Lys1, NVNTGELAAIKVIK) | Inhibition ([14]; Lys2, DIKGANILLTDNGHVK) | Inhibition [15] | Inhibition [16] | other results |
| --- | --- | --- | --- | --- | --- | --- | --- | --- | --- | --- | --- | --- | --- | --- | --- | --- | --- | --- | --- | --- | --- |
| C=CC(=O)Nc1cc(Nc2nccc(-c3cn(C)c4ccccc34)n2)c(OC)cc1N(C)CCN(C)C [Osimertinib, osimertinib, reference compound] | -4.1% | -14.8% | 98.2% | 4.6% | -11.7% | 8.3% | -1.6% | -4.2% | -12.9% | 6.2% | -26.5% | 9.8% | -20.7% | 13.6% | -19.6% | -0.9% | -4.2% | 3.2% | 22.9% | 34.9% | Inhibition ([17]; Lys1, DKNTNQIVAIKK): 34.0%; Inhibition ([17]; Lys2, DLKPNNLLLDENGVLK): 14.2%; Inhibition [18]: 19.2%; Inhibition [19]: -15.4%; Inhibition ([20]; TLVIKEVSSEDIADMHSNLSNYHQYIVK): 59.0%; Inhibition ([20]; VKELPTLKDMDFLNK): 55.5%; Inhibition [21]: 49.0%; Inhibition [22]: 0.8%; Inhibition [23]: -32.3%; Inhibition [24]: -19.3% |
| C=CC(=O)Nc1cc(C(=O)Nc2nc3cccc(C)c3n2[C@@H]2CCCCN(C(=O)C=C)C2)cs1 [ZNL-0056] | -18.2% | -0.1% | 97.2% | -6.0% | -4.8% | -22.3% | -10.4% | 16.6% | 11.7% | 0.451% | 14.5% | 22.0% | 17.6% | -29.1% | 4.4% | 4.7% | 9.4% | 21.1% | -0.632% | -4.3% | Inhibition ([17]; Lys1, DKNTNQIVAIKK): -17.3%; Inhibition ([17]; Lys2, DLKPNNLLLDENGVLK): -3.1%; Inhibition [18]: -4.5%; Inhibition [19]: 11.4%; Inhibition ([20]; TLVIKEVSSEDIADMHSNLSNYHQYIVK): 60.9%; Inhibition ([20]; VKELPTLKDMDFLNK): 53.5%; Inhibition [21]: 20.7%; Inhibition [22]: 7.6%; Inhibition [23]: 1.3%; Inhibition [24]: 5.3% |
